{"source": "PubChem BioAssay (NCI)", "experiment_in_all_cases": "NCI-60 cell line screen, 48 h", "key": {"UO-31 renal": {"system": "UO-31 renal"}, "RXF 393 renal": {"system": "RXF 393 renal"}, "MDA-MB-231 breast": {"system": "MDA-MB-231 breast"}, "NCI-H226 lung": {"system": "NCI-H226 lung"}, "SK-MEL-28 melanoma": {"system": "SK-MEL-28 melanoma"}, "HCC-2998 colon": {"system": "HCC-2998 colon"}, "ACHN renal": {"system": "ACHN renal"}, "MALME-3M melanoma": {"system": "MALME-3M melanoma"}, "SF-539 CNS": {"system": "SF-539 CNS"}, "UACC-62 melanoma": {"system": "UACC-62 melanoma"}, "SF-295 CNS": {"system": "SF-295 CNS"}, "786-0 renal": {"system": "786-0 renal"}, "COLO 205 colon": {"system": "COLO 205 colon"}, "CAKI-1 renal": {"system": "CAKI-1 renal"}, "BT-549 breast": {"system": "BT-549 breast"}, "OVCAR-8 ovarian": {"system": "OVCAR-8 ovarian"}, "HCT-116 colon": {"system": "HCT-116 colon"}, "NCI-H522 lung": {"system": "NCI-H522 lung"}, "T-47D breast": {"system": "T-47D breast"}, "SNB-19 CNS": {"system": "SNB-19 CNS"}, "SK-MEL-5 melanoma": {"system": "SK-MEL-5 melanoma"}, "SK-OV-3 ovarian": {"system": "SK-OV-3 ovarian"}, "OVCAR-5 ovarian": {"system": "OVCAR-5 ovarian"}, "SF-268 CNS": {"system": "SF-268 CNS"}, "NCI-H460 lung": {"system": "NCI-H460 lung"}, "HCT-15 colon": {"system": "HCT-15 colon"}, "HOP-62 NSCLC": {"system": "HOP-62 NSCLC"}, "MCF7 breast": {"system": "MCF7 breast"}}, "note": "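Grown in 96-well plates, cells were treated for 48 hours with each compound at five concentrations. Insufficient inhibition: endpoint recorded as highest concentration tested. GI50 = concentration required for 50% inhibition of growth. TGI is the concentration that stops growth completely.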"}
{"smiles": "Clc1ccc(CN2COc3c(ccc4cccnc34)C2)cc1Cl", "values": [{"measurement": "GI50", "setting": "UO-31 renal", "value": 0.4, "unit": "µM"}, {"measurement": "TGI", "setting": "UO-31 renal", "value": 10.5, "unit": "µM"}, {"measurement": "GI50", "setting": "RXF 393 renal", "value": 1.05, "unit": "µM"}, {"measurement": "TGI", "setting": "RXF 393 renal", "value": 4.1, "unit": "µM"}, {"measurement": "GI50", "setting": "MDA-MB-231 breast", "value": 1.32, "unit": "µM"}, {"measurement": "TGI", "setting": "MDA-MB-231 breast", "value": 9.92, "unit": "µM"}, {"measurement": "GI50", "setting": "NCI-H226 lung", "value": 1.28, "unit": "µM"}, {"measurement": "TGI", "setting": "NCI-H226 lung", "value": 7.12, "unit": "µM"}, {"measurement": "GI50", "setting": "SK-MEL-28 melanoma", "value": 1.47, "unit": "µM"}, {"measurement": "TGI", "setting": "SK-MEL-28 melanoma", "value": 14.2, "unit": "µM"}, {"measurement": "GI50", "setting": "HCC-2998 colon", "value": 2.28, "unit": "µM"}, {"measurement": "TGI", "setting": "HCC-2998 colon", "value": 8.77, "unit": "µM"}, {"measurement": "GI50", "setting": "ACHN renal", "value": 0.525, "unit": "µM"}, {"measurement": "TGI", "setting": "ACHN renal", "value": 10.6, "unit": "µM"}, {"measurement": "GI50", "setting": "MALME-3M melanoma", "value": 2.23, "unit": "µM"}, {"measurement": "TGI", "setting": "MALME-3M melanoma", "value": 9.16, "unit": "µM"}, {"measurement": "GI50", "setting": "SF-539 CNS", "value": 1.28, "unit": "µM"}, {"measurement": "TGI", "setting": "SF-539 CNS", "value": 3.72, "unit": "µM"}, {"measurement": "GI50", "setting": "UACC-62 melanoma", "value": 0.584, "unit": "µM"}, {"measurement": "TGI", "setting": "UACC-62 melanoma", "value": 2.41, "unit": "µM"}, {"measurement": "GI50", "setting": "SF-295 CNS", "value": 2.35, "unit": "µM"}, {"measurement": "TGI", "setting": "SF-295 CNS", "value": 12.6, "unit": "µM"}, {"measurement": "GI50", "setting": "786-0 renal", "value": 1.99, "unit": "µM"}, {"measurement": "TGI", "setting": "786-0 renal", "value": 5.85, "unit": "µM"}, {"measurement": "GI50", "setting": "COLO 205 colon", "value": 3.18, "unit": "µM"}, {"measurement": "TGI", "setting": "COLO 205 colon", "value": 11.9, "unit": "µM"}, {"measurement": "GI50", "setting": "CAKI-1 renal", "value": 3.28, "unit": "µM"}, {"measurement": "TGI", "setting": "CAKI-1 renal", "value": 13.2, "unit": "µM"}, {"measurement": "GI50", "setting": "BT-549 breast", "value": 2.46, "unit": "µM"}, {"measurement": "TGI", "setting": "BT-549 breast", "value": 17.5, "unit": "µM"}, {"measurement": "GI50", "setting": "OVCAR-8 ovarian", "value": 0.73, "unit": "µM"}, {"measurement": "TGI", "setting": "OVCAR-8 ovarian", "value": 10.2, "unit": "µM"}, {"measurement": "GI50", "setting": "HCT-116 colon", "value": 0.712, "unit": "µM"}, {"measurement": "TGI", "setting": "HCT-116 colon", "value": 2.78, "unit": "µM"}, {"measurement": "GI50", "setting": "NCI-H522 lung", "value": 1.1, "unit": "µM"}, {"measurement": "TGI", "setting": "NCI-H522 lung", "value": 2.61, "unit": "µM"}, {"measurement": "GI50", "setting": "T-47D breast", "value": 1.68, "unit": "µM"}, {"measurement": "TGI", "setting": "T-47D breast", "value": 11.3, "unit": "µM"}, {"measurement": "GI50", "setting": "SNB-19 CNS", "value": 1.98, "unit": "µM"}, {"measurement": "TGI", "setting": "SNB-19 CNS", "value": 14.3, "unit": "µM"}, {"measurement": "GI50", "setting": "SK-MEL-5 melanoma", "value": 0.971, "unit": "µM"}, {"measurement": "TGI", "setting": "SK-MEL-5 melanoma", "value": 2.9, "unit": "µM"}, {"measurement": "GI50", "setting": "SK-OV-3 ovarian", "value": 1.34, "unit": "µM"}, {"measurement": "TGI", "setting": "SK-OV-3 ovarian", "value": 13.1, "unit": "µM"}, {"measurement": "GI50", "setting": "OVCAR-5 ovarian", "value": 1.79, "unit": "µM"}, {"measurement": "TGI", "setting": "OVCAR-5 ovarian", "value": 15.2, "unit": "µM"}, {"measurement": "GI50", "setting": "SF-268 CNS", "value": 1.32, "unit": "µM"}, {"measurement": "TGI", "setting": "SF-268 CNS", "value": 12.1, "unit": "µM"}, {"measurement": "GI50", "setting": "NCI-H460 lung", "value": 0.532, "unit": "µM"}, {"measurement": "TGI", "setting": "NCI-H460 lung", "value": 2.52, "unit": "µM"}, {"measurement": "GI50", "setting": "HCT-15 colon", "value": 0.483, "unit": "µM"}, {"measurement": "TGI", "setting": "HCT-15 colon", "value": 15.5, "unit": "µM"}, {"measurement": "GI50", "setting": "HOP-62 NSCLC", "value": 1.49, "unit": "µM"}, {"measurement": "TGI", "setting": "HOP-62 NSCLC", "value": 10.9, "unit": "µM"}, {"measurement": "GI50", "setting": "MCF7 breast", "value": 0.697, "unit": "µM"}, {"measurement": "TGI", "setting": "MCF7 breast", "value": 3.59, "unit": "µM"}]}
